Test results as given in publication PMC12473689, “Drug Metabolism and Pharmacokinetics of Oxazolo[4,5-c]quinoline Analogs as Novel Interleukin-33 Inhibitors” (Pharmaceutics, 2025).
Where two headings read alike, the source gives them in different places.

Experiment: Pharmacokinetic study after single IV and PO dose
Format: in vivo
Conditions: male ICR mice; for bioavailability: oral, 10 mg/kg; for half-life: noncompartmental analysis
Experimental: All animal procedures were reviewed and approved by the Institutional Animal Care and Use Committee (IACUC) of Korea University (Approval No: KUIACUC-2020-0031) and conducted in compliance with the IACUC guidelines. […] In accordance with an approved protocol, mice were euthanized by CO2 asphyxiation at the end of the study. For intravenous (IV) administration, KB-1517 was dissolved in a vehicle of dimethylacetamide/Tween 80/water (5/5/90, v/v/v) at 1 mg/mL. KB-1518 (as TFA salt) was dissolved in DMSO/saline (10/90, v/v) at 1 mg/mL. Mice (n = 4 per group per compound) received a single IV dose of 5 mg/kg via the tail vein (dose volume: 5 mL/kg). For oral (PO) administration, the same formulations were used, and mice (n = 4 per group per compound) received a single dose of 10 mg/kg via oral gavage (dose volume: 10 mL/kg). For intraperitoneal (IP) administration, a suspension of KB-1517 or KB-1518 (0.4 mg/mL in PBS) was prepared by diluting a DMSO stock solution (13 mg/mL). Mice (n = 4 per compound) received a single IP injection of 0.2 mg per animal (dose volume: 500 µL). Serial blood samples (approximately 40 µL) were collected via the saphenous vein into Microvette® 100LH heparinized capillary tubes at selected time points. […] Plasma samples were stored in freezer until LC-MS/MS analysis. Protein precipitation was performed on 15 µL aliquots of plasma samples by adding three volumes of acetonitrile containing diclofenac as an analytical internal standard. The mixture was vortexed thoroughly and centrifuged at 3000× g for 30 min at 4 °C. A 50 µL aliquot of the resulting supernatant was transferred to a 96-well plate and mixed with 50 µL of water. The prepared solutions were analyzed using an Agilent 6460 QQQ LC-MS/MS system (Agilent Technologies Korea Ltd., Seoul, Republic of Korea). Quantitative analysis was performed using an Agilent 1290 Infinity Series HPLC system (Agilent Technologies Korea Ltd., Seoul, Republic of Korea) coupled to an Agilent 6460 QQQ mass spectrometer system (Agilent Technologies Korea Ltd., Seoul, Republic of Korea) with a dual AJS ESI ion source operating in positive ion mode. For chromatographic separation, an Agilent Eclipse Plus C18 column (2.1 × 100 mm, 3.5 µm) (Agilent Technologies Korea Ltd., Seoul, Republic of Korea) protected by a Phenomenex SecurityGuard C18 guard column was used. The mobile phase consisted of (A) 0.1% formic acid in water and (B) 0.1% formic acid in acetonitrile. […] The flow rate was 0.45 mL/min, the injection volume was 3 µL, and the column temperature was 40 °C. The ion source parameters for the mass spectrometer were set as follows: gas temperature 325 °C, gas flow 12 L/min, nebulizer pressure 35 psi, sheath gas temperature 350 °C, and sheath gas flow 10 L/min. Multiple Reaction Monitoring (MRM) transitions were used for quantification: KB-1517: m/z 402 → 72 (CE 10 V); KB-1518: m/z 402 → 72 (CE 5 V); Diclofenac (IS): m/z 296 → 215 (CE 30 V); […] Ranitidine: m/z 315 → 102 (CE 33 V); Itraconazole: m/z 705 → 395 (CE 40 V); […] Data acquisition and processing were performed using Agilent MassHunter Quantitative Analysis software (ver. B.05.00). Calibration curves were constructed using weighted linear regression. Noncompartmental analysis (NCA) was performed using PKSolver to determine pharmacokinetic parameters from the plasma concentration-time data. Parameters included: maximum plasma concentration (Cmax), time to reach Cmax (tmax), terminal elimination half-life (t1/2), area under the plasma concentration-time curve from time zero to the last measurable concentration (AUClast), area under the plasma concentration-time curve extrapolated to infinity (AUCinf), total body clearance (CL), and volume of distribution at steady state (Vss). […] Due to the anomalous profile of KB-1517, AUClast was used for its F calculation, and some parameters (t½, CL, Vss for IV; AUCinf for PO) could not be reliably determined (ND). […]

[1] = mouse, plasma, single IV dose 5 mg/kg, mean ± SD (n = 4)
[2] = mouse, plasma, single PO dose 10 mg/kg, mean ± SD (n = 4)

| Compound | F (apparent oral bioavailability) (PO 10 mg/kg vs IV 5 mg/kg, calculated using AUClast) [%] | bioavailability (male, ICR, mouse, plasma, PO 10 mg/kg vs IV 5 mg/kg, calculated using AUClast, read-out: F (apparent oral bioavailability)) [%] | AUC(0-t) [1] [ng·h/mL] | AUC(0-t) [2] [ng·h/mL] | Cmax [2] [ng/mL] | Tmax [2] [h] | F (oral bioavailability) (PO 10 mg/kg vs IV 5 mg/kg, calculated from AUCinf) [%] | CL (single IV dose 5 mg/kg, mean ± SD (n = 4), 5 mg/kg) [L/h/kg] | clearance (male, ICR, mouse, plasma, iv, 5 mg/kg, single IV dose 5 mg/kg, mean ± SD (n = 4)) [mL/min/kg] | Vd (male, ICR, mouse, plasma, iv, 5 mg/kg, single IV dose 5 mg/kg, mean ± SD (n = 4), read-out: Vss) [L/kg] | bioavailability (male, ICR, mouse, plasma, PO 10 mg/kg vs IV 5 mg/kg, calculated from AUCinf, read-out: F (oral bioavailability)) [%] | AUC(0-inf) [1] [ng·h/mL] | AUC(0-inf) [2] [ng·h/mL] | half-life (mouse, single IV dose 5 mg/kg, plasma, mean ± SD (n = 4)) [min] | half-life (mouse, single PO dose 10 mg/kg, plasma, mean ± SD (n = 4)) [min] |
| --- | --- | --- | --- | --- | --- | --- | --- | --- | --- | --- | --- | --- | --- | --- | --- |
| CN(C)CCn1c(=O)c2nc(-c3ccc(C(F)(F)F)cc3)oc2c2ccccc21 [KB-1517, 5-(2-(dimethylamino)ethyl)-2-(4-(trifluoromethyl)phenyl)oxazolo[4,5-c]quinolin-4(5H)-one] | 119.3 ± 20.1 | > 100 | 1830 ± 348 | 4370 ± 738 | 289 ± 34.1 | 5.6 ± 3.5 |  |  |  |  |  |  |  |  |  |
| CN(C)CCOc1nc2ccccc2c2oc(-c3ccc(C(F)(F)F)cc3)nc12 [KB-1518, N,N-dimethyl-2-((2-(4-(trifluoromethyl)phenyl)oxazolo[4,5-c]quinolin-4-yl)oxy)ethan-1-amine] |  |  | 3460 ± 474 | 868 ± 267 | 157 ± 104 | 1.6 ± 0.8 | 13.6 ± 3.4 | 1.5 ± 0.2 | ~25 | ~4.6 | ~14 | 3460 ± 476 | 942 ± 234 | 156 ± 18 | 372 ± 114 |
